According to patent US5434186A, “Carboxylic acid leukotriene B4 antagonists” (Hoffmann-La Roche Inc., priority 1993, dated 1995):
Read-outs that look alike come from different tables or passages of the source.

Tests used:
[1] = tested on: LTB4 -induced bronchoconstriction; test: Guinea Pig Bronchoconstriction In Vivo (LTB4-induced); design: species or system guinea pig (Hartley strain); conditions: Cavia porcellus, iv, i.v. five minutes prior to LTB4 (1 μg/kg i.v.), read-out: ID50 (mg/kg), i.v., LTB4-induced bronchoconstriction
Description: Male guinea pigs (Hartley strain) weighing 300 to 500 g are anesthetized with urethane (2 g/kg) intraperitoneally and a polyethylene cannula is inserted into the jugular vein for drug administration. Tracheal pressure is recorded from a cannula inserted into the trachea and connected to a Gould P23ID pressure transducer. After surgical preparation of the animals, a period of time is allowed for pulmonary functions to stabilize. The test compound is administered intravenously five minutes prior to leukotriene B4 administration according to the following protocol: Animals are paralyzed with succinylcholine (1.2 mg/kg i.v.) and mechanically respirated (Harvard rodent respirator) at 40 breaths/minute and 2.5 cc tidal volume. Propranolol (0.1 mg/kg) is then administered intravenously one minute prior to leukotriene B4 administration. Animals are then challenged with an intermediate constrictory dose of leukotriene B4 (1 μg/kg) delivered intravenously.
The change (cm H2 O) between pre and peak ventilatory pressure readings is averaged for five control and five drug treated animals. The percent inhibition is calculated from the formula:
((Control-Drug Treated)/Control)×100
When representative compounds of formula I of the invention were utilized as the test compounds the following results were obtained: […]

LTB4 Receptor = biological target: T1, LTB4 Receptor (Homo sapiens, UniProt Q15722); test: LTB4 Receptor Binding Assay (inhibition of 3H-LTB4 binding, human neutrophils); conditions: 0.5 nM 3H-LTB4, 45 minutes on ice, isolated human neutrophils
T1 construct: Isolated human neutrophils in Gey's salt solution; endogenous in cells; host or cells: human neutrophils isolated from blood (90-95% neutrophils)
T1 sequence (Q15722 whole entry): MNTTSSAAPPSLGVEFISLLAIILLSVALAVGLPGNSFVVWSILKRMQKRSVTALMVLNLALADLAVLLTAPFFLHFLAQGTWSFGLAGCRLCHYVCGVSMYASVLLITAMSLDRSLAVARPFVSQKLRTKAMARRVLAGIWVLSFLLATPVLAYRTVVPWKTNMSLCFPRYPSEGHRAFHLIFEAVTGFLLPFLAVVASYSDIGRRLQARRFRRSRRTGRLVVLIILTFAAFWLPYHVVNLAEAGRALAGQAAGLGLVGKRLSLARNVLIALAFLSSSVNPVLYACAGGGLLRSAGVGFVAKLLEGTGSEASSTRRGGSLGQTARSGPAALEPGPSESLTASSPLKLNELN
Description: Binding assays can be performed in microtiter wells. Isolated human neutrophils in Gey's salt solution are incubated on ice for 45 minutes with 0.5 nM ^3 H-LTB4 in the presence or absence of test compounds. Assays are terminated by adding 12 ml ice cold 50 mM Tris (pH 7.4) followed by rapid filtration under vacuum through GF/C filters. Radioactivity is determined by scintillation counting. Non specific binding is defined as the binding not displaced by 100 fold excess of unlabelled LTB4. Specific binding is defined as the difference between total binding and non-specific binding. Non linear analysis of the binding data is performed using LIGAND (Munson and Rodbard, 1980). Ki (Inhibition Constant) values were determined using the Cheng-Prusoff relationship (Cheng and Prusoff, 1973).
(§1) Human neutrophils are prepared from citrated or heparinized blood. The blood was diluted 1:1 with Hank's balanced salt solution (HBSS) minus calcium and magnesium and underlayed with 10 ml lymphocyte separation medium (Organon Teknika), followed by centrifugation at 500× g for 30 min., at room temperature. Supernatants are removed down to the red blood cell pellet. HBSS minus calcium and magnesium are added to give 25 ml. To this are added 25 ml 6% dextran in 0.85% NaCl. Samples are mixed and allowed to stand 20 min at room temperature. Supernatants are removed and centrifuged at 500× g for 5 min at 4° C. Pellets are resuspended with 20 ml 0.2% saline for 20 sec followed by the addition of 20 ml 1.6% saline. Samples are centrifuged at 500× g for 5 min at 4° C. The lysis is repeated and the cells (90-95% neutrophils) are resuspended at 2× 10^6 cell/ml in GEY's salt solution.

[2] = tested on: LTB4 mediated calcium fluxes in human neutrophils; test: Calcium Flux Assay (inhibition of LTB4 mediated calcium fluxes in human neutrophils); type: cell-based; conditions: Neutrophil; Fura2 labelled human neutrophils, 2.4 nM LTB4
Description: as §1
LTB4 induced changes in intracellular calcium concentration are measured using Fura2 labelled human neutrophils. Cells at a concentration of 2-5×10^6 /ml are labelled with 5 μM Fura2 for 30 minutes in Hank's balanced salt solution without calcium and magnesium. The cells are washed and resuspended at a final concentration of 1-2×10^7 cells/ml in Gey's solution. Calcium fluxes are initiated by the addition of 2.4 nM LTB4. Test compounds at appropriate concentrations are added to the cells just prior to the addition of LTB4. […] Fluorescence measurements are made in a Perkin Elmer model LS-5B spectrofluorimeter at a temperature setting of 37° C. Calcium concentrations are determined using the ratio method (ratio of cell fluorescence to media fluorescence).
When representative compounds of formula I of the invention were tested, the results set forth in Table H and expressed as inhibition of LTB4 mediated calcium fluxes in human neutrophils, were obtained.

[3] = tested on: LTB4 -induced skin inflammation; test: LTB4 Induced Skin Inflammation (hairless guinea pig); type: in vivo; conditions: for ED50: Cavia porcellus; for ID50, LTB4-induced skin inflammation, coinjection with LTB4: co-injection, 120 ng LTB4 intradermal
Description: Skin inflammation is induced in the hairless guinea pig by the intradermal injection of 50 μl Gey's salt solution/10% DMSO containing 120 ng LTB4. Injections are performed along the dorsal skin of the animals. Test compounds are administered at various times by co-injection, intravenous or oral administration. The test animals are euthanized four to six hours after the LTB4 injection and uniform skin punches are prepared from the injection sites. Punches are homogenized in 0.5% hexadecyltrimethyl ammonium bromide for one minute and centrifuged for 20 minutes at 14,000× g. Leukocyte accumulation is measured by assaying for myeloperoxidase activity in a kinetic assay using dimethoxybenzidine as the substrate. […] Skin injected with 120 ng LTB4 can show myeloperoxidase levels of 0.30-0.40 U/punch. LTB4 induced leukocyte accumulation is confirmed histologically in hematoxylin/eosin stained sections.

[4] = tested on: myeloperoxidase activity in mucosal scrapings; test: Acetic acid colitis (myeloperoxidase activity in mucosal scrapings); type: in vivo, Male Wistar rats; conditions: rat, 10 mg/kg twice daily for 3 days, N=10
Description: Male Wistar rats, weighing 175-225 g, are pretreated with test compound at 10 mg/kg, twice daily for 3 days (72 hours) prior to the evaluation of colitis. Colitis is induced after 2 days (48 hours) with an enema of 2 ml of 3.5% acetic acid; the acetic acid is neutralized after 10 seconds by 3 ml of phosphate-buffered saline, pH 7.4. After 3 days (72 hours), animals are sacrificed and myeloperoxidase activity in mucosal scrapings is determined as described in the skin inflammation model. Myeloperoxidase levels are presented as Units/gm mucosa.

[5] = tested on: LTB4 -induced bronchoconstriction; test: Guinea Pig Bronchoconstriction In Vivo (LTB4-induced); design: species or system guinea pig (Hartley strain); conditions: Cavia porcellus, po, read-out: ID50 (mg/kg), p.o., LTB4-induced bronchoconstriction
[6] = oral, read-out: ID50, LTB4-induced skin inflammation, oral route

Row | Ki (LTB4 Receptor) [nM] | IC50 [2] [nM] | Compound | ED50 [1] [mg/kg] | ED50 ([3]; intravenous at the time of the intradermal LTB4 injection, read-out: ID50, LTB4-induced skin inflammation, intravenous administration) [mg/kg] | ED50 [3, 6] [mg/kg] | ID50, LTB4-induced skin inflammation, coinjection with LTB4 [3] [ng] | % inhibition (myeloperoxidase, acetic acid colitis) [4] [%] | ED50 [5] [mg/kg]
1 | 3 |  | CCCc1c(OCCCCCOc2ccc(C(=O)CCCC(=O)O)cc2CCC(=O)O)ccc2c1OCCC2=O [Example 87, 3-(2-Carboxyethyl)-4-[5-[(3,4-dihydro-4-oxo-8-propyl-2H-1-benzopyran-7-yl)oxy]pentyloxy]-δ-oxobenzenepentanoic Acid] | 4.41 |  |  | 20 |  | > 10
2 | 1 |  | CCCc1c(OCCCCCCc2ccc(C(=O)c3cccc(C(=O)O)c3)cc2CCC(=O)O)ccc2c1OCCC2=O [Example 99, 5-[(3-Carboxyphenyl)carbonyl]-2-[6-[(3,4-dihydro-4-oxo-8-propyl-2H-1-benzopyran-7-yl)oxy]hexyl]benzenepropanoic Acid] |  |  |  | 20 |  | 
3 |  | 1 | CCCc1c(OCCCCCCc2cccc(OCCCCCC(=O)O)c2CCC(=O)O)ccc2c1OCCC2=O [Example 157, 2-[(5-Carboxypentyl)oxy]-6-[6-[(3,4-dihydro-4-oxo-8-propyl-2H-1-benzopyran-7-yl)oxy]hexyl]benzenepropanoic Acid] | 0.07 |  |  |  |  | 0.27
4 | 1 | 1 | CCCc1c(OCCCCCCc2cccc(CCCCCC(=O)O)c2CCC(=O)O)ccc2c1OCCC2=O [Example 169, 2-(2-Carboxyethyl)-3-[6-[(3,4-dihydro-4-oxo-8-propyl-2H-1-benzopyran-7-yl)oxy]hexyl]benzenehexanoic Acid] | 0.13 |  |  |  |  | 4.4
5 | 1 | 1 | CCCc1c(OCCCCCCc2cccc(OCCCCCO)c2CCC(=O)O)ccc2c1OCCC2=O [Example 180, 2-[6-[(3,4-Dihydro-4-oxo-8-propyl-2H-1-benzopyran-7-yl)oxy]hexyl]-6-[(5-hydroxypentyl)oxy]benzenepropanoic Acid] | 0.14 |  |  |  |  | 4.8

The remaining lines, values behind:

Row | Compound | Ki (LTB4 Receptor) [nM] | IC50 [2] [nM] | ED50 [1] [mg/kg] | ED50 ([3]; intravenous at the time of the intradermal LTB4 injection, read-out: ID50, LTB4-induced skin inflammation, intravenous administration) [mg/kg] | ED50 [3, 6] [mg/kg] | ID50, LTB4-induced skin inflammation, coinjection with LTB4 [3] [ng] | % inhibition (myeloperoxidase, acetic acid colitis) [4] [%] | ED50 [5] [mg/kg]
6 | CCCc1c(OCCCCCOc2ccc(C(=O)c3cccc(C(=O)O)c3)cc2CCC(=O)O)ccc2c1OCCC2=O [Example 20, 5-[(3-Carboxyphenyl)carbonyl]-2-[5-[(3,4-dihydro-4-oxo-8-propyl-2H-1-benzopyran-7-yl)oxy]pentyloxy]benzenepropanoic Acid] | 2 | 1 | 1.46 | 6 | 30 | 100 |  | 
7 | CCCc1c(OCCCCCCc2ccc(OCCCC(=O)O)cc2CCC(=O)O)ccc2c1OCCC2=O [Example 54, 5-(3-Carboxypropoxy)-2-[6-[(3,4-dihydro-4-oxo-8-propyl-2H-1-benzopyran-7-yl)oxy]hexyl]benzenepropanoic Acid] |  | 2 | 0.01 |  | 5 | 10 | 68 | 8.7
8 | CCCc1c(OCCCCCOc2cccc(OCCCCC(=O)O)c2CCC(=O)O)ccc2c1OCCC2=O [Example 62, 6-(4-Carboxybutoxy)-2-[5-[(3,4-dihydro-4-oxo-8-propyl-2H-1-benzopyran-7-yl)oxy]pentyloxy]benzenepropanoic Acid] | 0.8 |  | 2.06 |  |  | 35 |  | 
9 | CCCc1c(OCCCCCCc2cccc(OCCCCC(=O)O)c2CCC(=O)O)ccc2c1OCCC2=O [Example 126, 2-(4-Carboxybutoxy)-6-[6-[(3,4-dihydro-4-oxo-8-propyl-2H-1-benzopyran-7-yl)oxy]hexyl]benzenepropanoic Acid] |  | 2 | 0.12 |  |  |  |  | 0.54
